Laboratory results taken from article PMC12790326, “Water Networks as Hydrophobic Recognition Motifs in Proteins” (Angewandte Chemie (International Ed. in English), 2025).

How the values were obtained:
PDE4D [1] = experiment: PDE4D inhibition (literature IC50); format: biochemical; conditions: gain from the phenyl ring of 3DE (82 µM to 270 nM)
PDE4D [2] = system: PDE4D; design: method as in PMID 15685167; conditions: with the phenyl ring; the analogue without it has 82 µM; read-out: affinity for PDE4D (IC50); cited from earlier work
BRD4(1) = target: T1, BRD4(1) (Homo sapiens, UniProt O60885); experiment: TR-FRET binding assay: displacement of tetra-acetylated histone H4 peptide; conditions: for loss of efficacy/affinity with respect to 1: TR-FRET; for IC50: displacement of tetra-acetylated H4 peptide from BRD4(1), duplicate, best fit; for TR-FRET IC50 (fold change): fold change of IC50 relative to compound 1
T1 construct: encodes residues 44-168; His6 (TEV-cleavable); made in house; host or cells: Escherichia coli BL21 (DE3)
Description: Supplementary Information
Figure S3: Normalized TR-FRET assay showing dose-dependently displacement of a tetra-acetylated H4 peptide from Brd4(BD1) in the presence of compounds 2-5. IC50 values corresponding to best fit are reported inside each graph. […]
simultaneously. Each dot represents the average of two independent replicas, and the error bars correspond to their standard deviation.
The BRD4(1) construct was a kind donation of Dr. Alessio Ciulli (University of Dundee, UK) and it encodes residues 44-168. The cloned his-tagged BRD4(1) was expressed in Escherichia coli BL21 (DE3).
For biophysical assays, the protein puriﬁcation procedure consisted of immobilised metal ion aﬃnity chromatography (IMAC), followed by TEV cleavage of the histidine tag and a second IMAC chromatography. For crystallisation assays, the puriﬁcation protocol involved IMAC chromatography, followed by TEV cleavage and size-exclusion chromatography for crystallography. The expression and puriﬁcation has already been described.[25]
The Time-Resolved Fluorescence Resonance Energy Transfer (TR-FRET) binding assay used to measure the disruption of the interaction of BRD4(1) with [Lys(Ac)5/8/12/16]-Histone H4 (1-21)-GGK(Biotin) (Eurogentec) with compounds 1-5, was performed according to a previously described protocol.[26] The experiments were performed in 384-well black plates (NUNC) in a buﬀer composed of 50 mM HEPES, pH 7.4, 50 mM NaCl, 400 mM KF (Sigma), 0.5 mM CHAPS (Sigma), and 0.05% BSA (Sigma) in a ﬁnal volume of 100 μL. BRD4(1) (100 nM) protein domain was mixed with 200 nM of the biotin-labelled histone peptides and incubated for 30 min at room temperature. Molecules were prepared in 250 mM HEPES, pH 7.4, 250 mM NaCl, and 20% DMSO at a single concentration to give a ﬁnal concentration of 50 μM 1% DMSO in a total well volume of 100 μL and incubated for 1 h. Molecules showing inhibition were then screened in duplicate at several serial dilutions. Inhibition (%) at 50 μM was calculated with […]
where the negative control was run without BRD4(1) and inhibitor and positive control, without inhibitor to give the bottom signal and top signal, respectively. The protein−peptide complexes at equilibrium were then detected with 2 nM Eu3+ cryptate-conjugated streptavidin (CisBio) and 10 nM anti-his6-XL665 (CisBio). Titration of a known inhibitor ((+)-JQ1) was used as the control for each experiment. IC50 values were calculated by plotting the log [competitor/inhibitor] versus the mean normalised response data from a single experiment measured in duplicate and ﬁtting it to a four-parameter equation with variable Hill slope, using the GraphPad Prism software: […]
The plates were measured in a CLARIOStar reader (BMG Labtech) using the homogeneous time-resolved ﬂuorescence module (excitation, 337 nm with 200 ﬂashes; emission, 620 and 665 nm). The 665 nm/620 nm ratios were converted to % normalised TR-FRET ratio = top ratio signal as 100% and […]
bottom ratio signal as 0% to normalise experiments performed at diﬀerent days. Dose−response […]
2. Data Collection and Structure Solution.
X-ray diffraction data were collected on beamlines I03 and I04-1 at the Diamond Light Source. Data were integrated with XDS[27] and scaled with AIMLESS[28] as part of the XIA2 and autoPROC auto-processing pipelines.[29,30] Initial refinement and map calculation was carried out with DIMPLE[31] using a ligand-free version of BRD4(1) (PDB 3MXF[25]) as starting model. Ligand restraints were generated with ACEDRG[32] and GRADE.[33] Refinement and model building was performed with REFMAC[34] and COOT,[35] respectively. Structure validation was performed with MolProbity.[36] Final models and structure factors have been deposited with PDB accession codes 9QOB and 9QNV. Data […]
1) Protein and Ligand Preparation
Ligand 1 was co-crystallized in the previous study[9] with PDB code 6ZF9. The ligand pose was extracted from the PDB and missing hydrogens were added with MOE.[37] […]

| SMILES | ΔΔG bind (PDE4D [1]) | IC50 (PDE4D [2]) | loss of efficacy/affinity with respect to 1 (BRD4(1)) | IC50 (BRD4(1)) | TR-FRET IC50 (fold change) (BRD4(1)) |
| --- | --- | --- | --- | --- | --- |
| CCOC(=O)c1c(C)nn(-c2ccccc2)c1C [Compound 3DE] | 3.4 kcal/mol | 0.27 µM | – | – | – |
| OCc1nnc2scc(-c3ccccc3)n12 [Compound 4] | – | – | 2.5 fold | 65 µM | 2.5 x |
| COCc1nnc2scc(-c3ccccc3)n12 [Compound 3] | – | – | 3 fold | 85 µM | 3.3 x |
| Cc1nnc2scc(-c3ccccc3)n12 [Compound 2] | – | – | 2 fold | 54 µM | 2 x |
